Data published in publication PMC6149824, “Design and Synthesis of New Benzothiazole Compounds as Selective hMAO-B Inhibitors” (Molecules : A Journal of Synthetic Chemistry and Natural …, 2017).

Molecular target: T1, hMAO-A (Homo sapiens, UniProt P21397)
T1 sequence (P21397 1-527): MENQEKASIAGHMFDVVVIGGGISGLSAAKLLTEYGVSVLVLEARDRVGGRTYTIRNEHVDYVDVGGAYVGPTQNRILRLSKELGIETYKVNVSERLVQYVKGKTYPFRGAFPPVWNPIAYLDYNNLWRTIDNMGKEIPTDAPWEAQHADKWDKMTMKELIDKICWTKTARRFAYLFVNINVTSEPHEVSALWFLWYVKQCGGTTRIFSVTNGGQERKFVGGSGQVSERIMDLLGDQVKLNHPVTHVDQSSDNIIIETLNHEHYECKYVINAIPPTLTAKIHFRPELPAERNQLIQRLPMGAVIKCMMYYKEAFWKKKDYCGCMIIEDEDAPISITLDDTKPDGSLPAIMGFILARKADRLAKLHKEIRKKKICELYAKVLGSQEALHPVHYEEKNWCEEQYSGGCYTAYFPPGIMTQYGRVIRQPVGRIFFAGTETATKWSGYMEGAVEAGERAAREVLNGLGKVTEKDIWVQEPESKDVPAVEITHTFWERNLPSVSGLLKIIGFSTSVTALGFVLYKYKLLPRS
Assay: in vitro fluorometric hMAO-A inhibition assay (Amplex Red)
Format: biochemical
Conditions: read-out: MAO A Inhibition %
Method: The in vitro fluorometric enzymatic assay, allowing to sensitively detect monoamine oxidase activity, was applied to investigate hMAO-A and hMAO-B inhibitory potential of compounds 3a–3j. The method was performed in two steps, as previously described. […]
An enzyme inhibition assay was performed according to our recent study. The inhibitor (20 μL/well) and hMAO-A (100 μL/well) or hMAO-B solution (100 μL/well) was added to the fine black-bottom 96-well microtiter plate and the mixture was incubated at 37 °C for 30 min. After the incubation period, the reaction was started by adding a working solution (100 μL/well) ([…] Amplex Red reagent, 1 U/mL horseradish peroxidase and 1 mM p-tyramine) and all pipetting processes were performed using a Biotek Precision XS robotic system (BioTek Instruments, Winooski, VT, USA).
The production of H2O2 and, subsequently, of resorufin was quantified at 37 °C in a BioTek-Synergy H1 microplate reader based on the fluorescence generated (excitation, 535 nm, emission, 587 nm) over a 15 min period, in which the fluorescence increased linearly. Control experiments were carried out simultaneously by replacing the inhibitor solution with 2% DMSO (20 μL). In order to check the probable inhibitory effect of inhibitors on horseradish peroxidase, a parallel reading was achieved by replacing enzyme solutions with 3% H2O2 solution (20 mM 100 μL/well). In addition, the probable capacity of the inhibitors to modify the fluorescence generated in the reaction mixture due to non-enzymatic inhibition was determined by mixing inhibitor and working solutions.
The specific fluorescence emission (used to obtain the final results) was calculated after subtraction of the background activity, which was determined from vials containing all components except the hMAO isoforms, which were replaced by phosphate buffer (100 μL/well). Blank, control and all concentrations of inhibitors were analyzed in quadruplicate and inhibition percent was calculated by using following equation: % Inhibition=(FCt2−FCt1)−(FIt2−FIt1)/FCt2−FCt1×100 where FCt2 is the fluorescence of a control well measured at t2 time; FCt1 is the fluorescence of a control well measured at t1 time; FIt2 is the fluorescence of an inhibitor well measured at t2 time; and FIt1 is the fluorescence of an inhibitor well measured at t1 time.
The IC50 values were calculated from a dose-response curve obtained by plotting the percentage inhibition versus the log concentration with the use of GraphPad PRISM software (version 5.0, GraphPad Software Inc., La Jolla, CA, USA).

**Q.** Which results are given for `COc1ccc2sc(SCC(=O)NN=Cc3ccc([N+](=O)[O-])s3)nc2c1` [Compound 3e, 2-((5-Methoxybenzothiazol-2-yl)thio)-N′-((5-nitrothiophen-2-yl)methylene)acetohydrazide]?
**A.** inhibition at 1000 µM (10^−3 M): 22.1%; inhibition at 100 µM (10^−4 M): 18.6%
